The values below come from patent US6645490B2, “Chimeric proteins with cell-targeting specificity and apoptosis-inducing activities” (priority 1998, dated 2003).

Data set [1] concerns Human peripheral blood lymphocytes. In words: Assay for identifying apoptotic cells, FACS of fresh lymphocytes. Type of data set: cell-based. More on the design: unit not given here. The following applies: for M1-2 / M1 / M2: Experiment No. 1; for M1 / M2 / UL / UR: mean of duplicates; for UL + UR / UL / UR: Experiment No. 2. As for the experimental part:
Human peripheral blood lymphocytes from healthy donors were separated using Ficoll-Isopaque gradient (1.077) (Pharmacia) and used immediately. Lymphocytes were cultured in 5% CO2 in air in RPMI 1640 medium supplemented with 10% fetal calf serum, 200 μg/ml L-glutamate, 50 μg/ml penicillin, 50 μg/ml streptomycin, 50 μg/ml glutamine and 5×10^−5 M 2-β mercaptoethanol. Increasing concentrations of IL2-Bax (insoluble fraction, 6M Gu-HCl treated) were added to the lymphocytes for 22 hr. Cells were then stained with:
A. Propidium Iodide (PI, 3.5 μg/ml)
B. Propidium Iodide with a detergent for measuring cell cycle (0.7 ml of the PI buffer: 50 μg/ml PI, 0.1% Nacitrate, 0.1% Triton×100, were added to a cell pellet of ˜10^6 cells). Cells were then analyzed by FACS.

In data set [2] the test system is HUT102 cells. Nature of the data set: Cytotoxicity assay, [3H] leucine incorporation (inhibition of protein synthesis). Type of data set: cell-based, human. The note with it: HUT102, IL2R-expressing; FIG. 5A. The method, then: (§1) Cells (10^4 in 0.2 ml culture medium) were seeded in 96-well microplates, followed by the addition of various concentrations of the chimeric protein (diluted with 0.25% BSA in PBS). After a 24 hour incubation, [^3H] leucine (2-5 uci/well) were added for 6-13 hr. The plates were then stored at −70° C. for several hours, followed by quick thawing at 37° C. This step was omitted with targets cells growing in suspension. The cells were harvested on filters and the incorporated radioactivity was measured with a β counter. Results were expressed as the percent incorporation of the control experiments in which the cells were not exposed to any protein. All assays were carried out in triplicates.
(§2) The cytotoxic activity of the IL2-Bax chimeric protein was tested on HUT102 and MT-1 cells (human T-cell lines), and 2B4 cells (mouse T-cells); all known to express the high affinity receptor for IL2, by a quantitative assay, in which inhibition of protein synthesis was measured. The soluble and insoluble fractions generated from treatment under three different conditions were tested in cytotoxicity assays as described by Lorberboum-Galski et al. (1988, J. Biol. Chem. 263:18650-18656). […] This may be attributed to the different number of IL2R expressed on each cell line. […]

In a further data set the test system is MT-1 cells. The data set is described as above. The following applies: MT-1, IL2R-expressing; FIG. 5A. The format is cell-based, human. As for the experimental part: as §1, §2
In data set [3] the test system is CEM cells. Nature of the data set: Assay for identifying apoptotic cells, FACS (PI fluorescence of nuclei). The format is cell-based, human. The note with it: CEM cells lacking IL2R expression; FIGS. 9A-9C. The method, then:
(§3) HUT102 cells (target T cells) and CEM cells (non-target T cells) were incubated overnight with increasing concentrations of IL2-Bax. The 200×g centrifuged cell pellet was fixed in 2 ml cold 70% ethanol at 4° C. for 60 min. The cells were then centrifuged, washed in 1 ml PBS and resuspended in 0.5 ml PBS. 0.5 ml RNAse (Type I-A, Sigma, St. Louis, Mo., 1 mg/ml in PBS) was added to the sample, followed by gentle mixing with 1 ml PI (Sigma, 100 μg/ml PBS) solution. The mixed cells were incubated in the dark at room temperature for 15 min. and kept at 4° C. in the dark until measured. The PI fluorescence of the individual nuclei was measured using FACS flow cytometer. The forward scatter and side scatter of particles were simultaneously measured. Cell debris were excluded from analysis by appropriately raising the forward scatter threshold (Nicoletti et al., 1991, J. Immunol. Meth. 139:271-279).

Data set [4] deals with HUT102 cells. The data set is described as above. The format is cell-based, human. The note with it: highest concentration tested, overnight. As for the experimental part:
as §3

In data set [5] the test system is CEM cells. Nature of the data set: Cytotoxicity assay, [3H] leucine incorporation (inhibition of protein synthesis). Type of data set: cell-based, human. The following applies: lacking the IL2R, FIG. 5B. As for the experimental part:
as §1
(§4) The effects of IL2-Bax were also tested on various IL2R negative cells: CEM cells (a human T-cell line lacking the IL2R) and Km3 (a human non-T, non-B stem cell line). […] Since the fraction treated with Gu-HCl was active without any non-specific cytotoxicity, this fraction was further used in subsequent experiments.

The next data set has as its system Km3. The data set is described as above. The note with it: Km3, IL2R negative; FIG. 5B. The format is cell-based, human. As for the experimental part: as §1, §4
Another data set deals with 2B4 cells. The description is as above. The following applies: 2B4, IL2R-expressing; FIG. 5A. Type of data set: cell-based, mouse. The method, then:
as §1, §2

In data set [1] (dexamethasone (10^-7 M)), `C[C@@H]1C[C@H]2[C@@H]3CCC4=CC(=O)C=C[C@]4(C)[C@@]3(F)[C@@H](O)C[C@]2(C)[C@@]1(O)C(=O)CO` [dexamethasone, reference compound] showed an M1-2 of 6.7, an M1 of 9.5 and an M2 of 2.8.

Regarding IL2-Bax, the “Cytotoxic activity (inhibition of protein synthesis)” value in the data set with HUT102 cells [2] is reported as “responsive to the chimeric protein in a dose dependent manner”; in the data set on MT-1 cells, “responsive to the chimeric protein in a dose dependent manner”; in the data set with CEM cells [5] it was “unaffected”; in the data set with Km3 it was “unaffected”; in the data set with 2B4 cells it was “responsive to the chimeric protein in a dose dependent manner”. Moreover, the “Increase in the apoptotic cell population” value in the data set on CEM cells [3] is reported as “did not show an increase in the apoptotic cell population”. Also, the “Increase in the percentage of the apoptotic-cell population (sub-G1, M1)” value in the data set with HUT102 cells [4] came to 3.6 fold. The M1-2 in data set [1] (1 μg, 22 hr) was determined as 13.5; in data set [1] (5 μg, 22 hr), 20; in data set [1] (10 μg, 22 hr), 35. The M1 in data set [1] (1 μg, 22 hr) was found to be 17.5; in data set [1] (5 μg, 22 hr), 24.3; in data set [1] (10 μg, 22 hr) it was 42.1. The M2 in data set [1] (1 μg, 22 hr) is on record as 4; in data set [1] (5 μg, 22 hr) it was 4.3; in data set [1] (10 μg, 22 hr) it was 9.1. For the same compound, the “UL + UR” value in data set [1] (1 μg, 22 hr) was found to be 10.54; in data set [1] (10 μg, 22 hr), 31.55. Besides, the UL in data set [1] (1 μg, 22 hr) was 4.98; in data set [1] (10 μg, 22 hr), 14.71. The UR in data set [1] (1 μg, 22 hr) amounted to 5.56; in data set [1] (10 μg, 22 hr), 16.84.
